Assay in all cases: DTP human tumour cell line panel, 48 h
Experiment [1] concerns M14 melanoma.
For experiment [2], the system named is SF-295 CNS.
Experiment [3] deals with HT29 colon.
Experiment [4] has as its system LOX IMVI melanoma.
For experiment [5], the system named is UO-31 renal.
The subject of experiment [6] is UACC-62 melanoma.
The subject of experiment [7] is COLO 205 colon.
Experiment [8] has as its system SK-MEL-5 melanoma.
The subject of experiment [9] is SNB-19 CNS.

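Cells were grown in 96-well plates and exposed to each compound for 48 hours at five concentrations; endpoints were interpolated linearly between bracketing concentrations, or set to the highest concentration if not reached. GI50 is the concentration that inhibits growth by half. TGI denotes the concentration required for complete inhibition of growth.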

Turning to `Cc1cc(C)c(/C=N/NS(=O)(=O)c2ccccc2)c(C)c1`, the TGI in experiment [1], in [2], in [3], in experiment [4], in [5] and in experiment [6] was greater than 100 µM each time. The TGI in experiment [7] and in experiment [8] was greater than 100 µM each time.
With `Nc1n[nH]c2ccc([C@@H]3Nc4ccc5cn[nH]c5c4[C@H]4C5CCC(C5)[C@@H]34)cc12` (stereo not given in full), the GI50 in experiment [1] was 0.317 µM; in [9], 0.601 µM; in experiment [2] it was 0.277 µM; in [3], 0.382 µM; in experiment [4], 0.567 µM; in experiment [5], 1 µM. Further, the 50% growth inhibitory concentration (GI50) in experiment [6] is 0.389 µM; in [7], 0.332 µM; in [8], 0.355 µM. The TGI in experiment [1] is greater than 100 µM; in experiment [9], greater than 100 µM; in [2], 13.2 µM; in experiment [3], greater than 100 µM; in [4], greater than 81.2 µM; in experiment [5], greater than 100 µM. The TGI was 34.3 µM in experiment [6], 3.03 µM in experiment [7] and 3.45 µM in experiment [8].
Regarding `CC1=CC[C@@H](C(C)(C)O)C[C@@H]1O`, the TGI in [1], in experiment [9], in experiment [2], in [3], in experiment [4] and in experiment [5] was greater than 5000 µM throughout. The TGI in experiment [6], in experiment [7] and in experiment [8] was greater than 5000 µM each time.
Consider `CC(=O)O[C@@H]1CC[C@@]2(C)C(=O)C34C[C@@]5(C)C([C@@H](C)CCCC(C)C)CCC5(C)[C@](O)(O3)C(=O)[C@H]4C2C1(C)C` (stereo not given in full), for which the TGI in experiment [1] amounted to 25.8 µM; in experiment [9] it was 30.7 µM; in experiment [2], 29.8 µM; in experiment [3] it was 25.6 µM; in experiment [4], 32.1 µM; in experiment [5], 26 µM. Moreover, the TGI in [6] was 32.6 µM; in [7], 27.8 µM; in experiment [8], 28.4 µM.
As for `N#CCCN(c1ccc(C=O)cc1)S(=O)(=O)c1ccccc1`, the TGI in experiment [1], in experiment [9], in [2], in experiment [3], in experiment [4] and in experiment [5] was greater than 100 µM each time. In addition, the TGI in experiment [6] and in [8] was greater than 100 µM in each case.
For `COc1ccc2nc3ccccc3c(NCCN(CCCl)CCCl)c2c1`, the TGI in experiment [1] amounted to 2.28 µM; in experiment [9], 7.66 µM; in [2] it was 10 µM; in experiment [3] it was 61.1 µM; in [5] it was 4.39 µM; in experiment [6], 2.3 µM.
As for `O=C(O)CCC1c2[nH]c3ccccc3c2CCN1Cc1ccccc1` (stereo not given), the concentration for total growth inhibition (TGI) in [1], in experiment [9], in [2], in experiment [3], in experiment [4] and in experiment [5] was greater than 100 µM throughout. The TGI in experiment [6], in experiment [7] and in experiment [8] was greater than 100 µM throughout.
As to `CCOC(=O)C(=O)C(C#N)c1ccc(Cl)cc1` (stereo not given), the TGI in experiment [1], in experiment [9], in experiment [2], in experiment [3], in [4] and in experiment [5] was greater than 100 µM in each case. Moreover, the TGI in [6], in experiment [7] and in experiment [8] was greater than 100 µM throughout.
`COc1cc(CC(=O)O)c([N+](=O)[O-])cc1OC`: the TGI in [1], in experiment [9], in experiment [2], in experiment [3], in [4] and in experiment [5] was greater than 100 µM each time. In addition, the TGI in experiment [6] and in experiment [7] was greater than 100 µM each time.
As for `O=C(CC(=O)c1cccc([N+](=O)[O-])c1)C(=O)Nc1ccccc1`, the TGI in experiment [1], in [9], in experiment [2], in experiment [3], in [4] and in [5] was greater than 100 µM throughout. Further, the total growth inhibition concentration (TGI) in experiment [6] and in [8] was greater than 100 µM throughout.
As for `COc1ccc([C@@H]2OC(=O)C3C2C(=O)O[C@H]3c2ccc(OC)cc2)cc1` (stereo not given in full), the TGI in experiment [9], in experiment [2], in experiment [3], in [5], in [6] and in [7] was greater than 100 µM throughout.
On to `COC(=O)C(C(=O)C(=O)Nc1ccccc1C)c1nc2ccc([N+](=O)[O-])cc2[nH]c1=O` (stereo not given), for which the TGI in experiment [1], in experiment [9], in [2], in experiment [3], in [4] and in [5] was greater than 100 µM each time. For the same compound, the TGI in experiment [6], in experiment [7] and in [8] was greater than 100 µM each time.
Regarding `O=C(CC1(O)C(=O)Nc2ccccc21)c1ccccc1O` (stereo not given), the TGI in [1], in [9], in experiment [2], in [3], in [4] and in [5] was greater than 100 µM in each case. The TGI in [6], in experiment [7] and in [8] was greater than 100 µM throughout.
For `O=C1c2ccc3c4c(ccc(c24)C(=O)N1CCNCc1ccccc1)C(=O)N(CCNCc1ccccc1)C3=O`, the GI50 in experiment [1] is 1.85 µM; in experiment [9], 2.67 µM; in experiment [2] it was 1.78 µM; in [4] it was 1.67 µM; in experiment [6], 1.74 µM; in experiment [7], 1.65 µM. Besides, in experiment [8], the GI50 is 1.39 µM. Also, the TGI in experiment [1] came out at 3.27 µM; in experiment [9], 9.28 µM; in experiment [2], 5.2 µM; in experiment [4], 3.16 µM; in experiment [6] it was 3.35 µM; in experiment [7], 3.01 µM. In addition, in experiment [8], the TGI is 2.68 µM.

Usually TGI stands for the concentration at which net growth stops. Read a low TGI as greater sensitivity of the cells. The GI50 is the concentration that inhibits growth by half.
